Test results reported in patent publication US5085991A, “Process of preparing purified aqueous indole solution” (Mitsui Toatsu Chemicals, Inc., priority 1987, dated 1992).
Like-named read-outs stand apart in the source and are kept apart here.

Assays:
tryptophan synthase = tryptophan synthase (Escherichia coli, UniProt P0A879); assay: Activity of immobilized tryptophan synthase source after standing in aqueous solutions of organic impurities; type: biochemical, Escherichia coli MT-10232 (FERM BP-19); conditions: for activity at 200 µg/mL: impurity 200 ppm, ratio to enzyme left in reference solution without organic substance; for activity at 200 µg/mL / activity at 1000 µg/mL / activity at 500 µg/mL / activity at 20 µg/mL / activity at 50 µg/mL: 30° C., pH 8.5; for activity at 1000 µg/mL: impurity 1000 ppm; for activity at 1000 µg/mL / activity at 500 µg/mL / activity at 20 µg/mL / activity at 50 µg/mL: ratio to enzyme left in reference solution; for level at which the impurity inhibits tryptophan synthase: enzyme synthesizing tryptophan from indole and L-serine; for activity at 500 µg/mL: impurity 500 ppm; for activity at 20 µg/mL: impurity 20 ppm; for activity at 50 µg/mL: impurity 50 ppm
tryptophan synthase, sequence (P0A879 2-397): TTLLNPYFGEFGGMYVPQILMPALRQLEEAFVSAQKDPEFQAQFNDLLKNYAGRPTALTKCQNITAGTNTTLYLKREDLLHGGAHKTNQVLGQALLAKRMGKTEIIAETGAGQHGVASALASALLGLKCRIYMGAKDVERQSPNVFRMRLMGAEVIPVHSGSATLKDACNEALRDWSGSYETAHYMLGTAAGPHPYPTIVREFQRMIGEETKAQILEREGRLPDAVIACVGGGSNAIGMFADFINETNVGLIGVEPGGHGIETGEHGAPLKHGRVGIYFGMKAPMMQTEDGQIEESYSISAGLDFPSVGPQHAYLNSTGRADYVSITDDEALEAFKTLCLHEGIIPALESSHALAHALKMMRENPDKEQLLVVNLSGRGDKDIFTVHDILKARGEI
tryptophan synthase, sequence (P0A877 whole entry, further chain): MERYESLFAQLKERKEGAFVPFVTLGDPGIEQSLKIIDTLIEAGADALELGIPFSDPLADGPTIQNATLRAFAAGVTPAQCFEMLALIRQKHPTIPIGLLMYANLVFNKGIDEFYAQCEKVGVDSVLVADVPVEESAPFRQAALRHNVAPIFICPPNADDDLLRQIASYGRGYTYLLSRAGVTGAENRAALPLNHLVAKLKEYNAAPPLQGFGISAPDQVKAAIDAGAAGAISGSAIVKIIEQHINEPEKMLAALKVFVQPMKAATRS
Protocol: Escherichia coli MT-10232 (FERM BP-19), which is a tryptophan synthase-producing bacterium, was inoculated to 100 ml of the culture medium having the composition shown in Table 2 in a 500 ml flask, and was incubated at 35° C. for 24 hours. Two hundred milliliters (in two flasks) of the culture medium was inoculated to 15 1 of the culture medium having the composition shown in Table 3 in 30 1 of jar fermenter and was incubated at 35° C., pH 6.8 (adjusted with 28% aqueous ammonia) for 30 hours.
After the culture, the culture medium was centrifuged to collect 600 g wet weight of the bacterial cells. The cells were placed in a sealed container and restored in a refrigerator at 4° C., and were used for preparing the immobilized enzyme source.
One part of the above-described wet bacterial cells and one part of isotonic sodium chloride solution were mixed with stirring. On the other hand, 7.76 parts of distilled water and 0.24 parts of sodium alginate (NSPLL manufactured by Kibun Food Chemifa, Co., Ltd.) were mixed with stirring and pH thereof was adjusted to 8.5 with sodium hydroxide.
Two parts of the suspension of the cells and 8 parts of the sodium alginate solution were mixed with stirring and the resulting mixture was fed into a syringe and was dropped into a gelling solution from the tip of a needle with an inner diameter of 0.5 mm to 0.8 mm.
The particles formed by dropping the mixture into the gelling solution was matured under stirring in the gelling solution to obtain immobilized enzyme source.
To each of the aqueous solutions with a volume of 100 ml containing aniline, N-ethylaniline, o-ethylaniline, o-toluidine, 3-methylindole or 2-ethylindole in the amount shown in Table 4, […] of calcium chloride dihydrate and 1 mg of pyridoxal-5'-phosphate were added, and the pH thereof was adjusted to 8.5 with aqueous ammonia.
Further, as a reference solution, 100 ml of distilled water containing no organic substance was subjected to the same procedure as described above and the immobilized enzyme source was added thereto as mentioned above, followed by being left to stand at 30° C.
Twenty four hours later and 96 hours later, 1 g of immobilized enzyme source was removed from each of the solutions and the enzyme activity was determined. The ratio of the activity of the enzyme left in the solution of the organic substance to the activity of the enzyme left in the reference solution was determined and is shown in Table 4.
The enzyme activity was determined as follows:
Ten milliliters of reaction medium containing indole, L-serine, pyridoxal-5'-phosphate (PLP) and 0.3 g of the immobilized enzyme source was prepared and the reaction was conducted at 35° C. in a shaking incubator for 1 hour with shaking. The produced L-tryptophan was analyzed with high performance liquid chromatography.

[1] = room temperature; cited from earlier work
[2] = 24 h, read-out: Activity Ratio 24 Hours Later
[3] = 96 h, read-out: Activity Ratio 96 Hours Later

Structure (SMILES) | activity at 200 µg/mL (tryptophan synthase; [2]) | activity at 1000 µg/mL (tryptophan synthase; [2]) | activity at 200 µg/mL (tryptophan synthase; [3]) | activity at 1000 µg/mL (tryptophan synthase; [3]) | level at which the impurity inhibits tryptophan synthase (tryptophan synthase) | activity at 500 µg/mL (tryptophan synthase; [2]) | activity at 500 µg/mL (tryptophan synthase; [3]) | activity at 20 µg/mL (tryptophan synthase; [2]) | activity at 50 µg/mL (tryptophan synthase; [2]) | activity at 20 µg/mL (tryptophan synthase; [3]) | activity at 50 µg/mL (tryptophan synthase; [3]) | solubility in water [1]
CCc1ccccc1N [o-ethylaniline] | 90% | 71% | 77% | 50% | about 200 ppm |  |  |  |  |  |  | 
Cc1c[nH]c2ccccc12 [3-methylindole] | 94% |  | 89% |  | about 200 ppm | 94% | 84% |  |  |  |  | 
CCc1cc2ccccc2[nH]1 [2-ethylindole] | 68% |  | 48% |  | about 20 ppm |  |  | 93% | 73% | 71% | 54% | 
Nc1ccccc1 [Aniline] | 98% | 100% | 101% | 82% |  |  |  |  |  |  |  | 
c1ccc2[nH]ccc2c1 [indole] |  |  |  |  |  |  |  |  |  |  |  | 3 to 4 mg/mL
CCNc1ccccc1 [N-ethylaniline] | 104% | 100% | 97% | 89% |  |  |  |  |  |  |  | 
Cc1ccccc1N [o-toluidine] | 97% | 88% | 106% | 80% |  |  |  |  |  |  |  | 
